Assay results published in patent US20120196899A1, “METHODS AND PRODUCTS FOR TREATING INFLAMMATION” (Rock Creek Pharmaceuticals, Inc., priority 2010, published 2012).
Values joined by “and” are separate entries in the source; they are usually repeats but may differ in a detail not shown here. Equal entries are not always repeated.

How the values were obtained:
[1] = Clinical chemistry, day 15; assay type: in vivo, Sprague-Dawley rats
Text: On day 15, urine was collected on all surviving animals for urinalysis. The animals were euthanized and bled via cardiac puncture. Blood was collected for hematology, clinical chemistry, and coagulation analysis. Tissues were collected, weighed, and stored in 10% neutral-buffered formalin for possible future analysis.

[2] = tested on: BACE-1 protein expression; experiment: BACE-1 protein expression in SHSY cells (Western blot); assay type: cell-based, human; settings: 24 hours, corrected for actin
autoimmune thyroiditis = experiment: Autoimmune thyroiditis in thyroglobulin-immunized mice (Example 16B); assay type: in vivo, CBA/J female mice; settings: 0.05 mg/ml in drinking water
Description: In another experiment, eighteen CBA/J female mice were immunized with mouse thyroglobulin, emulsified in complete Freund's adjuvant, on day 0 and day 7. One group of mice (n=10) drank regular water. […] Mice were sacrificed 21 days after the first immunization to collect the thyroid gland and the blood. The thyroid was analyzed for the presence of infiltrating mononuclear cells. The blood was analyzed for the levels of antibodies against thyroglobulin.

[3] = anatabine 0.75 mg/kg, female rats, individual animals
[4] = anatabine 0.75 mg/kg, male rats, individual animals

SMILES: C1=CCC(c2cccnc2)NC1 (racemic) [Anatabine, 1,2,3,6-tetrahydro-[2,3′]bipyridinyl]
- CHLORIDE [1, 3]: 97 mEq/L (2×) and 96 mEq/L and 99 mEq/L and 101 mEq/L
- CHOLESTEROL [1, 3]: 66 mg/dL and 64 mg/dL and 63 mg/dL and 69 mg/dL and 87 mg/dL
- CREATININE [1, 3]: 0.5 mg/dL (2×) and 0.4 mg/dL (3×)
- DIR BILIRUBIN [1, 3]: 0 mg/dL
- GLOBULIN [1, 3]: 2.7 g/dL and 3 g/dL (2×)
- GLUCOSE [1, 3]: 237 mg/dL and 247 mg/dL and 217 mg/dL
- PHOSPHORUS [1, 3]: 9.7 mg/dL and 7.7 mg/dL and 9.6 mg/dL and 9.2 mg/dL and 7 mg/dL
- POTASSIUM [1, 3]: 5.5 mEq/L and 5.9 mEq/L and 6 mEq/L and 5.7 mEq/L and 6.3 mEq/L
- SODIUM [1, 3]: 145 mEq/L (2×) and 144 mEq/L (2×) and 147 mEq/L
- TOT BILIRUBIN [1, 3]: 0 mg/dL
- TOT PROTEIN [1, 3]: 6.3 g/dL (2×) and 6.2 g/dL and 6.6 g/dL and 6.5 g/dL
- ALBUMIN [1, 4]: 3.4 g/dL (2×) and 3.1 g/dL and 3.2 g/dL and 3.3 g/dL
- ALK PHOSPHATASE [1, 4]: 479 IU/L and 297 IU/L and 325 IU/L and 337 IU/L and 416 IU/L
- ALT [1, 4]: 75 IU/L and 57 IU/L and 65 IU/L and 50 IU/L and 87 IU/L
- AST [1, 4]: 103 IU/L and 66 IU/L and 97 IU/L and 90 IU/L and 92 IU/L
- BUN [1, 4]: 15 mg/dL and 18 mg/dL and 12 mg/dL and 17 mg/dL and 21 mg/dL
- CHLORIDE [1, 4]: 98 mEq/L and 99 mEq/L (2×) and 100 mEq/L and 97 mEq/L
- CHOLESTEROL [1, 4]: 69 mg/dL (2×) and 60 mg/dL and 54 mg/dL and 62 mg/dL
- CREATININE [1, 4]: 0.4 mg/dL (3×) and 0.3 mg/dL (2×)
- DIR BILIRUBIN [1, 4]: 0 mg/dL (4×) and 0.1 mg/dL
- GLOBULIN [1, 4]: 2.6 g/dL and 2.7 g/dL and 2.9 g/dL
- GLUCOSE [1, 4]: 222 mg/dL and 160 mg/dL and 198 mg/dL
- PHOSPHORUS [1, 4]: 11 mg/dL and 10.7 mg/dL and 10 mg/dL and 10.6 mg/dL
- POTASSIUM [1, 4]: 6.3 mEq/L (2×) and 5.4 mEq/L and 6 mEq/L and 6.6 mEq/L
- SODIUM [1, 4]: 147 mEq/L and 150 mEq/L
- TOT BILIRUBIN [1, 4]: 0 mg/dL (4×) and 0.1 mg/dL
- TOT PROTEIN [1, 4]: 6.2 g/dL and 5.7 g/dL and 5.9 g/dL and 6.1 g/dL and 6.3 g/dL
- albumin levels ([1]; anatabine: males 0.75 and […], females 0.1 and 0.75 mg/kg): slight increases in albumin levels
- ALBUMIN ([1]; female, 0.1 mg/kg, group mean): 3.62 g/dL
- ALK PHOSPHATASE ([1]; female, 0.1 mg/kg, group mean): 248.40 IU/L
- ALT ([1]; female, 0.1 mg/kg, group mean): 49.60 IU/L
- AST ([1]; female, 0.1 mg/kg, group mean): 77.00 IU/L
- DIR BILIRUBIN ([1]; female, 0.1 mg/kg, group mean): 0.00 mg/dL
- GLOBULIN ([1]; female, 0.1 mg/kg, group mean): 3.02 g/dL
- TOT BILIRUBIN ([1]; female, 0.1 mg/kg, group mean): 0.00 mg/dL
- TOT PROTEIN ([1]; female, 0.1 mg/kg, group mean): 6.64 g/dL
- ALBUMIN ([1]; female, 0.75 mg/kg, group mean): 3.52 g/dL
- ALK PHOSPHATASE ([1]; female, 0.75 mg/kg, group mean): 158.00 IU/L
- ALT ([1]; female, 0.75 mg/kg, group mean): 54.60 IU/L
- AST ([1]; female, 0.75 mg/kg, group mean): 73.20 IU/L
- BUN ([1]; female, 0.75 mg/kg, group mean): 15.40 mg/dL
- DIR BILIRUBIN ([1]; female, 0.75 mg/kg, group mean): 0.00 mg/dL
- GLOBULIN ([1]; female, 0.75 mg/kg, group mean): 2.86 g/dL
- TOT BILIRUBIN ([1]; female, 0.75 mg/kg, group mean): 0.00 mg/dL
- TOT PROTEIN ([1]; female, 0.75 mg/kg, group mean): 6.38 g/dL
- ALBUMIN ([1]; male, 0.1 mg/kg, group mean): 3.24 g/dL
- ALK PHOSPHATASE ([1]; male, 0.1 mg/kg, group mean): 407.40 IU/L
- ALT ([1]; male, 0.1 mg/kg, group mean): 70.60 IU/L
- AST ([1]; male, 0.1 mg/kg, group mean): 96.00 IU/L
- BUN ([1]; male, 0.1 mg/kg, group mean): 18.00 mg/dL
- DIR BILIRUBIN ([1]; male, 0.1 mg/kg, group mean): 0.00 mg/dL
- GLOBULIN ([1]; male, 0.1 mg/kg, group mean): 2.86 g/dL
- TOT BILIRUBIN ([1]; male, 0.1 mg/kg, group mean): 0.00 mg/dL
- TOT PROTEIN ([1]; male, 0.1 mg/kg, group mean): 6.10 g/dL
- ALBUMIN ([1]; male, 0.75 mg/kg, group mean): 3.28 g/dL
- ALK PHOSPHATASE ([1]; male, 0.75 mg/kg, group mean): 370.80 IU/L
- ALT ([1]; male, 0.75 mg/kg, group mean): 66.80 IU/L
- AST ([1]; male, 0.75 mg/kg, group mean): 89.60 IU/L
- DIR BILIRUBIN ([1]; male, 0.75 mg/kg, group mean): 0.02 mg/dL
- TOT BILIRUBIN ([1]; male, 0.75 mg/kg, group mean): 0.02 mg/dL
- TOT PROTEIN ([1]; male, 0.75 mg/kg, group mean): 6.04 g/dL
- globulins ([1]; males, all anatabine dose levels, nicotine 0.75 mg/kg): marginally higher
- BACE-1 protein expression [2]: reduced BACE expression
- levels of thyroglobulin antibodies (autoimmune thyroiditis; day 21): had no effect on the levels of thyroglobulin antibodies
- thyroiditis frequency and severity (autoimmune thyroiditis; day 21, p=0.023): developed thyroiditis less frequently and of lower severity
